In PMC10067855, “Sialidases and fucosidases of Akkermansia muciniphila are crucial for growth on mucin and nutrient sharing with mucus-associated gut bacteria” (Nature Communications, 2023):

How the values were obtained:
Assay in all cases: inhibition of pNPFuc hydrolysis, A405
Assay type in all cases: biochemical
AmGH29C = target: T1, AmGH29C (Akkermansia muciniphila, UniProt B2UNB9)
T1 construct: gene Amuc_0392; mature peptide lacking the signal peptide
T1 sequence (B2UNB9 41-709): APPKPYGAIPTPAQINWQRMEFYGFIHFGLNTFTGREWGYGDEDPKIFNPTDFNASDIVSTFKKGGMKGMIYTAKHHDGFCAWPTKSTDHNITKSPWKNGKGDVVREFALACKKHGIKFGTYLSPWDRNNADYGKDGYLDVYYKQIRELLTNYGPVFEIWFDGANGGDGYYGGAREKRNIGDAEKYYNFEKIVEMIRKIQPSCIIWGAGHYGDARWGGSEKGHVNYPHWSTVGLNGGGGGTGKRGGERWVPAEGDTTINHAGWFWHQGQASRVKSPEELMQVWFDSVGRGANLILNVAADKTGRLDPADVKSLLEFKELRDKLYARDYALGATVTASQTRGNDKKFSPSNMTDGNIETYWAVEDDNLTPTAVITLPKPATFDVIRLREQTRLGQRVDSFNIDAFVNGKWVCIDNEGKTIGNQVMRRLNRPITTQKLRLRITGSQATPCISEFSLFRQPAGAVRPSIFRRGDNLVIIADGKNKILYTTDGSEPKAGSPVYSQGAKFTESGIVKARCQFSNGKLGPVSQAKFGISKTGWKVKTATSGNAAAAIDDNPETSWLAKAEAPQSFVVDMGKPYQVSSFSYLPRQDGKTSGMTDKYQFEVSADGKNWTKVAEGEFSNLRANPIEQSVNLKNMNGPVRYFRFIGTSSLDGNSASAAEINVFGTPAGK

AmGH29B = target: T2, AmGH29B (Akkermansia muciniphila, UniProt B2ULU6)
T2 construct: gene Amuc_0146; mature peptide lacking the signal peptide
T2 sequence (B2ULU6 27-711): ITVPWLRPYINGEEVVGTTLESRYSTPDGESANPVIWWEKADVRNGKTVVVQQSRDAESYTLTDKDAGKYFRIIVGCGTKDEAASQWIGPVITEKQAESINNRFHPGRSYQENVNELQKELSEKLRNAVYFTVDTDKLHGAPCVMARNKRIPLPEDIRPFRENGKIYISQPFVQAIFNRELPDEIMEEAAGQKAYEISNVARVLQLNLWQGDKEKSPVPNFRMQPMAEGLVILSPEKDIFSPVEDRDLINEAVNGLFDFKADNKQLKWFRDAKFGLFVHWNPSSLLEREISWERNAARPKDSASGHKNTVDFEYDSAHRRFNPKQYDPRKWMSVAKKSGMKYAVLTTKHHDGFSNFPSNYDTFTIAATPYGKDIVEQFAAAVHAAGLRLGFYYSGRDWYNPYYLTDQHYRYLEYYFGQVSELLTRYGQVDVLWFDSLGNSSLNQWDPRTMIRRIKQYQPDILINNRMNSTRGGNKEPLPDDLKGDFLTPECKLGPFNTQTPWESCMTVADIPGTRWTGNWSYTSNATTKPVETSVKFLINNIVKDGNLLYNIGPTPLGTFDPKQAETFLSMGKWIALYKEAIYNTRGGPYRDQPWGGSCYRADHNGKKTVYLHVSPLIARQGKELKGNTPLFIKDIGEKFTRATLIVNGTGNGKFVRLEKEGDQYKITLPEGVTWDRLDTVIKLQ

AmGH95B = target: T3, AmGH95B (Akkermansia muciniphila, UniProt B2UR61)
T3 construct: gene Amuc_1120; mature peptide lacking the signal peptide
T3 sequence (B2UR61 23-796): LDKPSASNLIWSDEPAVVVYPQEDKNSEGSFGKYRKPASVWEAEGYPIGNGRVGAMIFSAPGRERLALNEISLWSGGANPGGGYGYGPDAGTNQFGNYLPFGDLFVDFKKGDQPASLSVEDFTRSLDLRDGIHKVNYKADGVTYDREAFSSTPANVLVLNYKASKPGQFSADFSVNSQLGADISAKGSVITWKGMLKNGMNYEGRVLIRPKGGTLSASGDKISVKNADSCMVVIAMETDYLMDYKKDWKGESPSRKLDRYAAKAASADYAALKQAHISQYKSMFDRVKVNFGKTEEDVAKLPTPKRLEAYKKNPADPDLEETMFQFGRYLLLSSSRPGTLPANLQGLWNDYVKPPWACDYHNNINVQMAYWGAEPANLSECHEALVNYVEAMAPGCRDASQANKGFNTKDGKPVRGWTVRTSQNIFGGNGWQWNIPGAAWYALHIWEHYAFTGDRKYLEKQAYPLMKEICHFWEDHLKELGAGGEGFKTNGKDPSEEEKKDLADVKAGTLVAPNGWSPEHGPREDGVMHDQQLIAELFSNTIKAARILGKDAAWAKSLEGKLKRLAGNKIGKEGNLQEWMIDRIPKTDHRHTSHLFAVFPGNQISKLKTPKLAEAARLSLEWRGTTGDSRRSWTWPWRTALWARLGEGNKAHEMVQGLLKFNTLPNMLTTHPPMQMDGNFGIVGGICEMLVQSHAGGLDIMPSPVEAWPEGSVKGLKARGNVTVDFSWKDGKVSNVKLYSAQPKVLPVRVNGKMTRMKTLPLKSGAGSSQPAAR

AmGH95A = target: T4, AmGH95A (Akkermansia muciniphila, UniProt B2UM81)
T4 construct: gene Amuc_0186; mature peptide lacking the signal peptide
T4 sequence (B2UM81 25-788): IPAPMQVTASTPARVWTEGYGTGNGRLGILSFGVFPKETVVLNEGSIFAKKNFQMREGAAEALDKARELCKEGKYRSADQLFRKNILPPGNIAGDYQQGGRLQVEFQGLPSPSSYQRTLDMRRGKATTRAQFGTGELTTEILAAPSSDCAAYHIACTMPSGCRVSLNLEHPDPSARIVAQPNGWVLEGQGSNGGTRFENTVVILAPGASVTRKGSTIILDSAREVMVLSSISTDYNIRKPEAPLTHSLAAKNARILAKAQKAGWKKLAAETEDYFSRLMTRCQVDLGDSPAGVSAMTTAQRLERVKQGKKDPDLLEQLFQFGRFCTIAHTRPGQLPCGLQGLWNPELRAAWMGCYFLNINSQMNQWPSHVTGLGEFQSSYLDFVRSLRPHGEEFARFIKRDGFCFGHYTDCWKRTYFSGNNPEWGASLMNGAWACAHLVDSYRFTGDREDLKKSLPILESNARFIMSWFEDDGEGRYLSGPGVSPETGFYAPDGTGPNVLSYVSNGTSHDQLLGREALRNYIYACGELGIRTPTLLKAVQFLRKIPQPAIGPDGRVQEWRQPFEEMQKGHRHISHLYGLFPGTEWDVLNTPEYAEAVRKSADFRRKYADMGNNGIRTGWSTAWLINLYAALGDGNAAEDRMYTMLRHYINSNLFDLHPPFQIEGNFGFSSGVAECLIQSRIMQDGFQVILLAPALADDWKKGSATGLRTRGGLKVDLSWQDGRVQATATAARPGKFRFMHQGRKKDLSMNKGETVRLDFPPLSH

Measured: IC50

C[C@@H]1NC[C@@H](O)[C@H](O)[C@@H]1O [DFJ, 1-Deoxyfuconojirimycin]
< 54 µM: all assays above
